We go through 1 molecule from US10407430B2, “Janus kinase 1 selective inhibitor and pharmaceutical use thereof” (YANG JI CHEMICAL CO., LTD., priority 2015, dated 2019).

One series addresses T1, Human TYK2 (Homo sapiens, UniProt P29597).
T1 construct: purchased Millipore, Germany
The experiment in a line: In-vitro kinase inhibition test, TYK2. Format: biochemical. Particulars: read-out: TYK2 kinase-phosphorylation inhibitory level (% inhibition).

The conditions of series [1]: comparative drug (EMA), cited from earlier work.

Usually inhibition stands for the percentage by which the read-out fell short of the control. By Cmax is commonly meant the highest concentration seen after dosing. By bioavailability is commonly meant the share of a dose that reaches the circulation, judged against a reference dose that is usually intravenous.

Structures are written as SMILES. Where a name gives a salt, the structure may show the parent alone. Read-outs that look alike come from different tables or passages of the source.

T1 sequence (P29597 whole entry): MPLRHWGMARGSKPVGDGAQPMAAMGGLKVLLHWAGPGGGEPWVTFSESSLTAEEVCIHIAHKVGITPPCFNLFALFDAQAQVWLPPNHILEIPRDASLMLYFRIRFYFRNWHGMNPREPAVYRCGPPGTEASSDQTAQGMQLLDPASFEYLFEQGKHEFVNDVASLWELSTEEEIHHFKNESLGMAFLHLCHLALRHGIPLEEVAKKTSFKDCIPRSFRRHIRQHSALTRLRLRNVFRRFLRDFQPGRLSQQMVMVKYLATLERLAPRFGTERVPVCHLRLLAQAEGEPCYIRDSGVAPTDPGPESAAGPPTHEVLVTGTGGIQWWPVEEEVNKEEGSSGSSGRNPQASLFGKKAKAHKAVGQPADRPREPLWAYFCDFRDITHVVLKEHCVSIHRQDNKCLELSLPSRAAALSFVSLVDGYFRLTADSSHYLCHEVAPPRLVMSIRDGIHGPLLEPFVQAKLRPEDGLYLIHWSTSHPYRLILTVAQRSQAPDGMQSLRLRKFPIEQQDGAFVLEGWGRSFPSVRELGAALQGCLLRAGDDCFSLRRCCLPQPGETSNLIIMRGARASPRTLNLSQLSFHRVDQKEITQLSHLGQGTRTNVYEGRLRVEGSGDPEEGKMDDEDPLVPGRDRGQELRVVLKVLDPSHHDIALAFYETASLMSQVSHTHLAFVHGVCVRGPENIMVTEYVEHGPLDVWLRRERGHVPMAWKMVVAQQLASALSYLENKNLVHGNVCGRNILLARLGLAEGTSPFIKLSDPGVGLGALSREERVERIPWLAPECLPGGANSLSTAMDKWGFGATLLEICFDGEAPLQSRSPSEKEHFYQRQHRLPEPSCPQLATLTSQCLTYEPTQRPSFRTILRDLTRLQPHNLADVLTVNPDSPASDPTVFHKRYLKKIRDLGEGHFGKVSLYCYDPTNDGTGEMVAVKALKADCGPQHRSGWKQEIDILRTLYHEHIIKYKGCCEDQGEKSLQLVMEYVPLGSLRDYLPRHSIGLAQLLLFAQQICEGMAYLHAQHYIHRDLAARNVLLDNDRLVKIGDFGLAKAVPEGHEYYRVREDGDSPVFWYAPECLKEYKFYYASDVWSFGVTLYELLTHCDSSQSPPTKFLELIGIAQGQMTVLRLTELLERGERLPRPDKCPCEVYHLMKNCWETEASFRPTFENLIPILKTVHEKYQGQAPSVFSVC
Description for Human TYK2: Human-derived JAK1, JAK2, JAK3 and TYK2 (Millipore, Germany) were used as kinases. Each kinase was diluted with an appropriate buffer as described below, and then mixed with reaction reagents.
3-morpholinopropane-1-sulfonic acid (MOPS) and EDTA were dissolved in deionized water at a concentration of 20 mM and 1 mM, respectively, and then 100 μL of β-mercaptoethanol, 10 μL of Brij-35™, 5 mL of glycerol, and 100 mg of bovine serum albumin (BSA), each per 100 mL of the solution, were added to the solution, thereby preparing a dilution buffer for JAK2, JAK3, and TYK2.
Each compound was dissolved in a 100%-DMSO solution at a concentration of about 50 μM. This prepared solution was reacted with reaction reagents in each well of a 96-well plate until a final concentration of the compound reached 1 μM. A detailed experimental method for each kinase is as follows.
After reaction for about 40 minutes at room temperature, the reaction was stopped by adding 5 uL of a 3% (v/v) phosphoric acid solution.
The inhibitory levels (% inhibition) represent a percentage of reduction in phosphorylation activity in each test group with respect to the phosphorylation activity of a corresponding kinase in a negative control group lacking any of the compounds synthesized in the examples. % inhibition=[(Scintillation value of Test compound non-treatment group−Scintillation value of Test compound treatment group)/(Scintillation value of Test compound non-treatment group)]×100

Take `CC1CCN(C(=O)CC#N)CC1N(C)c1ncnc2[nH]ccc12` (stereo not shown) [tofacitinib citrate, 3-{4-methyl-3-[methyl-(7H-pyrrolo[2,3-d]pyrimidine-4-yl)-amino]-piperidine-1-yl}-3-oxo-propionitrile]: at Human TYK2, the inhibition at 1 µM was 100%. In series [1] (intravenous injection, 5 mg/kg), the AUC0→t was 3180 ng·h/mL and the t1/2 is 2.8 h. Moreover, in series [1] (oral administration, 10 mg/kg), the AUC0→t is 2750 ng·h/mL, the Cmax is listed as 2400 ng/mL, the bioavailability is recorded as 43.3% and the t1/2 was 2.0 h.
